Source: the supplement of paper PMC10733146

Legend:
Assay in all cases: viability relative to DMSO control (fraction); higher = less drug effect (more viable cells)
Conditions in all cases: 48 h
[1] = tested on: primary ALL patient cells (S088)
In short: (§1)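 Viability was measured as CellTiter-Glo luminescence relative to the median of 16 inner DMSO wells. Primary mononuclear tumour cells, fresh or cryopreserved, were Ficoll-isolated from blood or bone marrow or taken from processed lymph node. They were seeded at 4 × 10^4 cells per well into 384-well plates holding pre-plated compounds at five concentrations, one well each, and kept in RPMI-1640 with penicillin/streptomycin, L-glutamine and human serum at 37 °C and 5% CO2 for 48 h.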

[2] = tested on: primary AML patient cells (S072)
In short: as §1

[3] = tested on: primary AML patient cells (S056)
In short: as §1

[4] = tested on: primary CLL patient cells (S043)
In short: as §1

[5] = tested on: primary AML patient cells (S071)
In short: as §1

[6] = tested on: primary AML patient cells (S060)
In short: as §1

[7] = tested on: primary AML patient cells (S007)
In short: as §1

[8] = tested on: primary AML patient cells (S079)
In short: as §1

[9] = tested on: primary ALL patient cells (S048)
In short: as §1

[10] = tested on: primary AML patient cells (S089)
In short: as §1

[11] = tested on: primary CLL patient cells (S031)
In short: as §1

[12] = tested on: primary DLBCL patient cells (S082)
In short: as §1

[13] = tested on: primary AML patient cells (S027)
In short: as §1

[14] = tested on: primary MCL patient cells (S063)
In short: as §1

## CCc1cnn2c(NCc3ccc[n+]([O-])c3)cc(N3CCCC[C@H]3CCO)nc12 [Dinaciclib]
[1]; 0.0016 µM
  viability: 0.644
[1]; 0.008 µM
  viability: 0.0942
[1]; 0.04 µM
  viability: 0.0343
[1]; 0.2 µM
  viability: 0.0308
[1]; 1 µM
  viability: 0.0318
[2]; 0.0016 µM
  viability: 0.979
[2]; 0.008 µM
  viability: 0.169
[2]; 0.04 µM
  viability: 0.0691
[2]; 0.2 µM
  viability: 0.0617
[2]; 1 µM
  viability: 0.065
[3]; 0.0016 µM
  viability: 0.898
[3]; 0.008 µM
  viability: 0.0944
[3]; 0.04 µM
  viability: 0.101
[3]; 0.2 µM
  viability: 0.0868
[3]; 1 µM
  viability: 0.0937
[4]; 0.0016 µM
  viability: 1.08
[4]; 0.008 µM
  viability: 0.0742
[4]; 0.04 µM
  viability: 0.0345
[4]; 0.2 µM
  viability: 0.0401
[4]; 1 µM
  viability: 0.0459
[5]; 0.0016 µM
  viability: 0.966
[5]; 0.008 µM
  viability: 0.105
[5]; 0.04 µM
  viability: 0.107
[5]; 0.2 µM
  viability: 0.0985
[5]; 1 µM
  viability: 0.0952
[6]; 0.0016 µM
  viability: 1.12
[6]; 0.008 µM
  viability: 0.0838
[6]; 0.04 µM
  viability: 0.0221
[6]; 0.2 µM
  viability: 0.0219
[6]; 1 µM
  viability: 0.0206
[7]; 0.0016 µM
  viability: 0.637
[7]; 0.008 µM
  viability: 0.175
[7]; 0.04 µM
  viability: 0.118
[7]; 0.2 µM
  viability: 0.12
[7]; 1 µM
  viability: 0.141
[8]; 0.0016 µM
  viability: 1
[8]; 0.008 µM
  viability: 0.153
[8]; 0.04 µM
  viability: 0.028
[8]; 0.2 µM
  viability: 0.0285
[8]; 1 µM
  viability: 0.0293
[9]; 0.0016 µM
  viability: 0.839
[9]; 0.008 µM
  viability: 0.127
[9]; 0.04 µM
  viability: 0.0333
[9]; 0.2 µM
  viability: 0.0246
[9]; 1 µM
  viability: 0.0268
[10]; 0.0016 µM
  viability: 0.929
[10]; 0.008 µM
  viability: 0.0524
[10]; 0.04 µM
  viability: 0.0434
[10]; 0.2 µM
  viability: 0.0447
[10]; 1 µM
  viability: 0.0498
[11]; 0.0016 µM
  viability: 0.744
[11]; 0.008 µM
  viability: 0.0197
[11]; 0.04 µM
  viability: 0.018
[11]; 0.2 µM
  viability: 0.0169
[11]; 1 µM
  viability: 0.0188
[12]; 0.0016 µM
  viability: 0.98
[12]; 0.008 µM
  viability: 0.102
[12]; 0.04 µM
  viability: 0.0294
[12]; 0.2 µM
  viability: 0.0307
[12]; 1 µM
  viability: 0.0332
[13]; 0.0016 µM
  viability: 1.05
[13]; 0.008 µM
  viability: 0.12
[13]; 0.04 µM
  viability: 0.0422
[13]; 0.2 µM
  viability: 0.0393
[13]; 1 µM
  viability: 0.0395
[14]; 0.0016 µM
  viability: 1
[14]; 0.008 µM
  viability: 0.0229
[14]; 0.04 µM
  viability: 0.0173
[14]; 0.2 µM
  viability: 0.0173
[14]; 1 µM
  viability: 0.0157

## CN1CC[C@H](c2c(O)cc(O)c3c(=O)cc(-c4ccccc4Cl)oc23)[C@H](O)C1 [Flavopiridol]
[1]; 0.0032 µM
  viability: 0.955
[1]; 0.016 µM
  viability: 0.916
[1]; 0.08 µM
  viability: 1.08
[1]; 0.4 µM
  viability: 0.0921
[1]; 2 µM
  viability: 0.0295
[2]; 0.0032 µM
  viability: 1.17
[2]; 0.016 µM
  viability: 1.05
[2]; 0.08 µM
  viability: 0.754
[2]; 0.4 µM
  viability: 0.156
[2]; 2 µM
  viability: 0.0607
[3]; 0.0032 µM
  viability: 0.928
[3]; 0.016 µM
  viability: 0.75
[3]; 0.08 µM
  viability: 0.367
[3]; 0.4 µM
  viability: 0.065
[3]; 2 µM
  viability: 0.0807
[4]; 0.0032 µM
  viability: 0.933
[4]; 0.016 µM
  viability: 1.02
[4]; 0.08 µM
  viability: 0.912
[4]; 0.4 µM
  viability: 0.265
[4]; 2 µM
  viability: 0.0335
[5]; 0.0032 µM
  viability: 0.914
[5]; 0.016 µM
  viability: 0.833
[5]; 0.08 µM
  viability: 0.54
[5]; 0.4 µM
  viability: 0.0926
[5]; 2 µM
  viability: 0.0942
[6]; 0.0032 µM
  viability: 0.949
[6]; 0.016 µM
  viability: 0.937
[6]; 0.08 µM
  viability: 0.848
[6]; 0.4 µM
  viability: 0.127
[6]; 2 µM
  viability: 0.0228
[7]; 0.0032 µM
  viability: 0.945
[7]; 0.016 µM
  viability: 0.68
[7]; 0.08 µM
  viability: 0.624
[7]; 0.4 µM
  viability: 0.127
[7]; 2 µM
  viability: 0.0782
[8]; 0.0032 µM
  viability: 1.01
[8]; 0.016 µM
  viability: 0.979
[8]; 0.08 µM
  viability: 0.878
[8]; 0.4 µM
  viability: 0.112
[8]; 2 µM
  viability: 0.0261
[9]; 0.0032 µM
  viability: 0.998
[9]; 0.016 µM
  viability: 1
[9]; 0.08 µM
  viability: 1.1
[9]; 0.4 µM
  viability: 0.535
[9]; 2 µM
  viability: 0.0207
[10]; 0.0032 µM
  viability: 0.742
[10]; 0.016 µM
  viability: 1.01
[10]; 0.08 µM
  viability: 0.362
[10]; 0.4 µM
  viability: 0.0371
[10]; 2 µM
  viability: 0.0437
[11]; 0.0032 µM
  viability: 1.04
[11]; 0.016 µM
  viability: 0.914
[11]; 0.08 µM
  viability: 0.963
[11]; 0.4 µM
  viability: 0.0407
[11]; 2 µM
  viability: 0.0147
[12]; 0.0032 µM
  viability: 1.03
[12]; 0.016 µM
  viability: 0.977
[12]; 0.08 µM
  viability: 1.11
[12]; 0.4 µM
  viability: 0.103
[12]; 2 µM
  viability: 0.0254
[13]; 0.0032 µM
  viability: 1.04
[13]; 0.016 µM
  viability: 0.947
[13]; 0.08 µM
  viability: 0.842
[13]; 0.4 µM
  viability: 0.0906
[13]; 2 µM
  viability: 0.0365
[14]; 0.0032 µM
  viability: 0.987
[14]; 0.016 µM
  viability: 0.935
[14]; 0.08 µM
  viability: 0.887
[14]; 0.4 µM
  viability: 0.269
[14]; 2 µM
  viability: 0.0178
